Each compound was assayed on AMPK (assay: AMPK activation assay (enzyme-linked immunosorbent assay)).
Format: cell-based
In short: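 Read-out: immunodetected kinase activation after compound exposure, run with commercial kit reagents.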

Row | SMILES | EC50 [nM]
1 | N#Cc1ccc(CN2CCC(NC(=O)c3ccc(C(=O)N4CCC(C(O)c5ccc(F)cc5)CC4)cn3)CC2)cc1 (stereo not drawn) [Compound 142, N-(1-(4-cyanobenzyl)piperidin-4-yl)-5-(4-((4-fluorophenyl)(hydroxy)methyl)piperidine-1-carbonyl)picolinamide] | < 500
2 | CS(=O)(=O)c1ccc(C(=O)C2CCN(C(=O)c3ccc(C(=O)NC4CCN(Cc5ccc(N6CCCC6)cc5)CC4)nc3)CC2)cc1 [Compound 233, 5-(4-(4-(methylsulfonyl)benzoyl)piperidine-1-carbonyl)-N-(1-(4-(pyrrolidin-1-yl)benzyl)piperidin-4-yl)picolinamide] | < 500
3 | O=C(c1ccc(-c2cccc(OCc3ccccc3)c2)nc1)N1CCN(Cc2ccc(F)cc2)CC1 [Compound 22, (6-(3-(benzyloxy)phenyl)pyridin-3-yl)(4-(4-fluorobenzyl)piperazin-1-yl)methanone] | < 500
4 | N#Cc1ccc(CN2CCC(NC(=O)c3ccc(C(=O)N4CCN(c5ccc(S(=O)(=O)C6CC6)cc5)CC4)cn3)CC2)cc1 [Compound 256, N-(1-(4-cyanobenzyl)piperidin-4-yl)-5-(4-(4-(cyclopropylsulfonyl)phenyl)piperazine-1-carbonyl)picolinamide] | < 500
5 | O=C(Nc1ccc(Oc2ccc(F)cc2)nc1)c1ccc(C(=O)N2CCC(Oc3ccc(F)cc3)CC2)cn1 [Compound 273, 5-(4-(4-fluorophenoxy)piperidine-1-carbonyl)-N-(6-(4-fluorophenoxy)pyridin-3-yl)picolinamide] | < 500
6 | N#Cc1ccc(Cn2ccc(NC(=O)c3ccc(C(=O)N4CCN(Cc5ccc(F)cc5)CC4)cn3)n2)cc1 [Compound 9, N-(1-(4-cyanobenzyl)-1H-pyrazol-3-yl)-5-(4-(4-fluorobenzyl)piperazine-1-carbonyl)picolinamide] | < 500
7 | N#Cc1ccc(CNC(=O)c2ccc(NC(=O)c3ccc(C(=O)N4CCN(Cc5ccc(F)cc5)CC4)cn3)cc2)cc1 [Compound 47, N-(4-(4-cyanobenzylcarbamoyl)phenyl)-5-(4-(4-fluorobenzyl)piperazine-1-carbonyl)picolinamide] | < 500
8 | O=C(NC1CCN(Cc2cc(F)cc(F)c2)CC1)c1ccc(C(=O)N2CC(OCc3ccc(F)cc3)C2)cn1 [Compound 308, N-(1-(3,5-difluorobenzyl)piperidin-4-yl)-5-(3-(4-fluorobenzyloxy)azetidine-1-carbonyl)picolinamide] | < 500
9 | N#Cc1ccc(CN2CCC(NC(=O)c3ccc(C(=O)N4CCC(C(=O)c5ccc(Cl)cc5)CC4)cn3)CC2)cc1 [Compound 154, 5-(4-(4-chlorobenzoyl)piperidine-1-carbonyl)-N-(1-(4-cyanobenzyl)piperidin-4-yl)picolinamide] | < 500
10 | CCOC(=O)C(c1ccccc1)N1CCC(NC(=O)c2ccc(C(=O)N3CCN(Cc4ccc(F)cc4)CC3)cn2)CC1 (stereo not drawn) [Compound 98, ethyl 2-(4-(5-(4-(4-fluorobenzyl)piperazine-1-carbonyl)picolinamido)piperidin-1-yl)-2-phenylacetate] | 1000 to 5000
11 | Cc1cccc(Oc2ccc(NC(=O)c3ccc(C(=O)N4CCN(Cc5ccc(F)cc5)CC4)cn3)cc2)c1 [Compound 58, 5-(4-(4-fluorobenzyl)piperazine-1-carbonyl)-N-(4-(3-methylphenoxy)phenyl)picolinamide] | < 500
12 | COc1ccc(C(=O)C2CCN(C(=O)c3ccc(C(=O)Nc4ccc(Oc5ccc(S(C)(=O)=O)cc5)nc4)cn3)CC2)cc1 [Compound 465, 6-(4-(4-methoxybenzoyl)piperidine-1-carbonyl)-N-(6-(4-(methylsulfonyl)phenoxy)pyridin-3-yl)nicotinamide] | < 500
13 | CC(C)N1CCN(C(=O)c2ccc(C(=O)N3CCN(CCc4ccccc4)CC3)nc2)CC1 [Compound 91, (4-isopropylpiperazin-1-yl)(6-(4-phenethylpiperazine-1-carbonyl)pyridin-3-yl)methanone] | > 10000
14 | O=C(N[C@H]1CC[C@@H](Oc2ccc(F)cc2)CC1)c1ccc(C(=O)N2CCC(C(=O)c3ccc(F)cc3)CC2)cn1 [Compound 304, 5-(4-(4-fluorobenzoyl)piperidine-1-carbonyl)-N-((cis)-4-(4-fluorophenoxy)cyclohexyl)picolinamide] | < 500
15 | N#Cc1ccc(CN2CCC(NC(=O)c3ccc(C(=O)N4CCC(C(=O)c5cccs5)CC4)cn3)CC2)cc1 [Compound 419, N-(1-(4-cyanobenzyl)piperidin-4-yl)-5-(4-(thiophene-2-carbonyl)piperidine-1-carbonyl)picolinamide] | < 500

The next lines start with the values.

Row | EC50 [nM] | SMILES
16 | < 500 | O=C(NC1CCN(Cc2ccc(OC(F)(F)F)cc2)CC1)c1ccc(C(=O)N2CCC(Oc3ccc(S(F)(F)(F)(F)F)cc3)CC2)nc1 [Compound 494, 6-(4-(4-(pentafluorosulfanyl)phenoxy)piperidine-1-carbonyl)-N-(1-(4-(trifluoromethoxy)benzyl)piperidin-4-yl)nicotinamide]
17 | 5000 to 10000 | CN1CCN(c2ccc(C(=O)C3CCN(C(=O)c4ccc(C(=O)NC5CCN(Cc6ccc(OC(F)(F)F)cc6)CC5)cn4)CC3)cc2)CC1 [Compound 244, 6-(4-(4-(4-methylpiperazin-1-yl)benzoyl)piperidine-1-carbonyl)-N-(1-(4-(trifluoromethoxy)benzyl)piperidin-4-yl)nicotinamide]
18 | 1000 to 5000 | O=C(NC1CCN(c2ccc(F)cc2)CC1)c1ccc(C(=O)N2CCN(Cc3ccc(F)cc3)CC2)nc1 [Compound 404, 6-(4-(4-fluorobenzyl)piperazine-1-carbonyl)-N-(1-(4-fluorophenyl)piperidin-4-yl)nicotinamide]
19 | < 500 | CC(=O)c1ccc(OC2CCN(C(=O)c3ccc(C(=O)NC4CCN(Cc5ccc(C#N)cc5)CC4)cn3)CC2)cc1 [Compound 390, 6-(4-(4-acetylphenoxy)piperidine-1-carbonyl)-N-(1-(4-cyanobenzyl)piperidin-4-yl)nicotinamide]
20 | < 500 | N#Cc1ccc(CN2CCC(NC(=O)c3ccc(C(=O)N4CCC(Oc5ccc(S(F)(F)(F)(F)F)cc5)CC4)nc3)CC2)cc1 [Compound 493, N-(1-(4-cyanobenzyl)piperidin-4-yl)-6-(4-(4-(pentafluorosulfanyl)phenoxy)piperidine-1-carbonyl)nicotinamide]
21 | < 500 | N#Cc1ccc(CN2CCC(NC(=O)c3ccc(C(=O)N4CCC(C(=O)c5ccc(F)cc5)CC4)cn3)CC2)cc1 [Compound 136, N-(1-(4-cyanobenzyl)piperidin-4-yl)-5-(4-(4-fluorobenzoyl)piperidine-1-carbonyl)picolinamide]
22 | < 500 | COc1ccc(OC2CCN(C(=O)c3ccc(C(=O)NC4CCN(Cc5ccc(N6CCCC6)cc5)CC4)nc3)CC2)cc1 [Compound 195, 5-(4-(4-methoxyphenoxy)piperidine-1-carbonyl)-N-(1-(4-(pyrrolidin-1-yl)benzyl)piperidin-4-yl)picolinamide]
23 | < 500 | COc1ccc(CN2CCC(NC(=O)c3ccc(C(=O)N4CCC(C(=O)c5ccc(F)cc5)CC4)cn3)CC2)cc1 [Compound 160, 5-(4-(4-fluorobenzoyl)piperidine-1-carbonyl)-N-(1-(4-methoxybenzyl)piperidin-4-yl)picolinamide]
24 | < 500 | COc1cc(C#N)ccc1OC1CCN(C(=O)c2ccc(C(=O)NC3CCN(Cc4ccc(C#N)cc4)CC3)nc2)CC1 [Compound 66, 5-(4-(4-cyano-2-methoxyphenoxy)piperidine-1-carbonyl)-N-(1-(4-cyanobenzyl)piperidin-4-yl)picolinamide]

— US20150087673A1, “METHODS FOR USING AND BIOMARKERS FOR AMPK-ACTIVATING COMPOUNDS” (RIGEL PHARMACEUTICALS, INC., priority 2013, published 2015)
